Laboratory results: paper PMC12655659, “Population Pharmacokinetics of Radotinib in Healthy Volunteers and Patients with Chronic Myeloid Leukemia” (Pharmaceuticals, 2025)
Where two headings read alike, the source gives them in different places. Each block holds one compound with its values, some of them ahead of it.

Assays:
[1] = test system: patients newly diagnosed with Ph+ CML-CP; parameters: method as in PMID 28939746; details: by 12 months, cited from earlier work
[2] = cited from earlier work
[3] = Population pharmacokinetic model (nonlinear mixed-effects modeling) of radotinib plasma concentrations in healthy volunteers and patients with CML-CP; type: in vivo, human; details: for half-life: human, plasma, oral, read-out: terminal half-life (t1/2), population estimate (converted)
Description: Two clinical PK studies of radotinib were performed in healthy volunteers and patients with CML-CP. The two studies were approved by the institutional review board (IRB) of Severance Hospital and Peking University People’s Hospital (IRB numbers 4-2024-0489 and 2018PHA053, respectively) and were conducted in accordance with the Declaration of Helsinki and the International Council for Harmonization Good Clinical Practice (ICH-GCP) guidelines. All participants provided written informed consent prior to any study-related procedures. The studies were registered at ClinicalTrials.gov (identifiers: NCT06461078 and NCT03722420). The present population PK study was performed using pooled data from two clinical studies.
The first study (NCT06461078) included healthy male adult volunteers aged 19 to 55 years, weighing 55 kg or heavier, with a body mass index (BMI) between 18.5 kg/m^2 and 27.0 kg/m^2. Individuals with a history of clinically significant psychiatric or comorbid conditions such as severe hepatic impairment, severe renal impartment, long QT syndrome; a history of gastrointestinal disorders or surgeries that may have affected the absorption of radotinib; or suspected symptoms of acute illness at the time of screening were excluded. Also excluded were individuals with concomitant medications or foods that may have interfered with the study outcomes as well as those with excessive consumption of caffeine, alcohol or tobacco. Individuals were also ineligible if they had participated in other clinical trials within 180 days, donated whole blood within 60 days or blood components within 30 days or received a blood transfusion within 30 days prior to the administration of radotinib. Study participants received a single oral dose of 400 mg radotinib under fasting conditions. Serial blood samples were collected from forearm veins of participants pre-dose and at 0.5, 1, 2, 3, 4, 5, 6, 8, 10, 12, 18, 24, 32 and 48 h post-dose.
The second study (NCT03722420) included patients aged 18 years or older with a confirmed diagnosis of Ph+ CML-CP within last 6 months, typical BCR-ABL1 transcript type and normal organ function. Patients with a T315I mutation in the BCR-ABL1 gene; a history of radiotherapy, interferon or other targeted anti-leukemic therapies; or clinically significant comorbidities were excluded. Patients were also ineligible if they had participated in other investigational studies within the past 3 months or were taking therapeutic coumarin derivatives; a moderate or strong CYP3A4 inhibitor or inducer; or medications that may have prolonged the QT interval. Study participants were orally administered 300 mg radotinib twice daily under fasting conditions. Serial blood samples were obtained from forearm veins pre-dose and at 1, 2, 3, 4, 6, 8 and 12 h post-dose on Days 1 and 14.
All samples were centrifuged to separate plasma and stored at −70 °C until the measurement of plasma concentrations (Cp) of radotinib. The Cp of radotinib in HVs was measured using high-performance liquid chromatography coupled with tandem mass spectrometric detection (HPLC-MS/MS; Prominence HPLC/UFLC/UFLCXR, Shimadzu, Kyoto, Japan; QTRAP 6500+, SCIEX, Marlborough, MA, USA). An internal standard was radotinib-d6 dissolved in acetonitrile to produce working solutions. The linearity of the bioanalytical method was assessed using a calibration curve computed by a weighted (1/x^2) linear regression from seven standard concentrations (5, 10, 30, 100, 300, 1000 and 2000 ng/mL). The method was validated using concentrations of 5, 15, 160 and 1600 ng/mL for the lower limit of quantitation (LLOQ) and low- (LQC), medium- (MQC) and high-quality controls (HQC), respectively.
In patients with CML-CP, the Cp of radotinib was quantified using another HPLC–MS/MS system (LC-20ADXR pump, CTO-20AC column oven, CBM-20A Lite controller and DGU-20A5R degasser, Shimadzu, Kyoto, Japan; API 4000, SCIEX, MA, USA). Glipizide in acetonitrile was used as an internal standard. […]

[4] = Preliminary pharmacokinetic assessment in patients with CML-CP; type: in vivo; details: human, plasma, oral, 300 mg twice daily, obtained by doubling the preliminary value of AUC0–12h, read-out: AUC0–24h, previously estimated
[5] = parameters: method as in ref 24 = [24]; 24. Kim J. Kang M. Lee Y. Yoo S. Han J. Cho D.J. Lee G.Y. Kim N.Y. Jiang Q. Lee J. Pharmacokinetic characteristics of radotinib assessed in Asian patients with chronic myeloid leukemia Proceedings of; details: patients with CML-CP, cited from earlier work
[6] = test system: patients with CML-CP; parameters: method as in PMID 24705186; details: 400 mg twice daily; 77 patients; at 12 months; cited from earlier work
[7] = parameters: method as in ref 23 = [23]; 23. Lee Y. Kang M. Kim J. Han J. Kim N.Y. Shin J.S. Park M.S. Kim C.O. Jin B.H. Choi M.K. Clinical pharmacokinetic characteristics and the effect of food on radotinib in healthy volunteers Proceedings; details: healthy volunteers; cited from earlier work

Compound: Cc1ccc(NC(=O)c2ccc(CN3CCN(C)CC3)cc2)cc1Nc1nccc(-c2cccnc2)n1 [imatinib]
patients achieving major molecular response (MMR) ([1]; once-daily 400 mg, 20 of 66 patients): 30%

Compound: Cc1cn(-c2cc(NC(=O)c3ccc(C)c(Nc4nccc(-c5cccnc5)n4)c3)cc(C(F)(F)F)c2)cn1 [nilotinib]
target Ctrough in terms of favorable molecular responses ([2]; 400 mg once daily): 500 ng/mL | t1/2 [2]: 16 h

CL/F, bootstrap estimate median (95% CI) ([3]; bootstrap of 1000 replicates): 23.2 (20.0–26.5) L/h | MTT, bootstrap estimate median (95% CI) ([3]; bootstrap of 1000 replicates): 1.86 (1.43–2.27) h | N, bootstrap estimate median (95% CI) ([3]; bootstrap of 1000 replicates): 6.34 (4.46–10.6) | Q/F, bootstrap estimate median (95% CI) ([3]; bootstrap of 1000 replicates): 126 (88.9–185) L/h | Vc/F age effect, bootstrap estimate median (95% CI) ([3]; bootstrap of 1000 replicates): −0.0127 (−0.0258–−0.003) | Vc/F, bootstrap estimate median (95% CI) ([3]; bootstrap of 1000 replicates): 395 (281–526) L | Vp/F, bootstrap estimate median (95% CI) ([3]; bootstrap of 1000 replicates): 529 (398–733) L | ka, bootstrap estimate median (95% CI) ([3]; bootstrap of 1000 replicates): 1.56 (1.07–3.14) h^−1 | σproportional, bootstrap estimate ([3]; bootstrap of 1000 replicates): 20.0% | ωCL/F, bootstrap estimate median (95% CI) ([3]; bootstrap of 1000 replicates): 0.379 (0.301–0.459) | ωIOV, bootstrap estimate median (95% CI) ([3]; bootstrap of 1000 replicates): 0.669 (0.494–0.829) | CL/F slower in CML-CP patients compared with HVs ([3]; final population PK model): 39.2% | MTT (mean transit time), population estimate ([3]; final population PK model): 1.88 h | N (number of transit compartments), population estimate ([3]; final population PK model): 6.58 | estimated slope of negative linear effect of age on Vc/F ([3]; final population PK model): −0.0129 per year | ka (first-order absorption rate constant), population estimate ([3]; final population PK model): 1.59 h⁻¹ | negative linear relationship of age with Vc/F ([3]; final population PK model): −0.0129 L per year | total V/F (summation of Vc/F and Vp/F) ([3]; final population PK model): 902 L | σproportional (proportional residual error), population estimate ([3]; final population PK model): 20.0% | ωCL/F (interindividual variability of apparent clearance), population estimate ([3]; final population PK model): 0.389 | CL/F, population estimate in healthy volunteers ([3]; final population PK model, HVs): 37.9 L/h | Vc/F age effect (slope), population estimate ([3]; final population PK model, linear, age − 31): −0.0129 | ωIOV (interoccasion variability), population estimate ([3]; final population PK model, on Vc/F and Vp/F): 0.698 | CL/F (apparent clearance), population estimate ([3]; final population PK model, typical patient with CML-CP): 23.0 L/h | terminal half-life (t1/2), population estimate ([3]; healthy volunteers): 18.2 h | half-life ([3]; 300 mg, patients with CML-CP): 28.8 h | half-life ([3]; male, 400 mg, healthy volunteers): 17.5 h | AUC(0-t) [4]: 24000 ng·h/mL
Compound: Cc1cn(-c2cc(NC(=O)c3ccc(C)c(Nc4nccc(-c5cnccn5)n4)c3)cc(C(F)(F)F)c2)cn1 [radotinib]
patients achieving major molecular response (MMR) ([1]; 300 mg twice daily, 37 of 69 patients): 54% | Cmax, preliminarily assessed value ([5]; 300 mg twice daily): 1595 (1143–2393) ng/mL | tmax, preliminarily assessed value ([5]; 300 mg twice daily): 2.5 (2.0–3.8) h | t1/2, preliminary value [5]: 25.4 h | patients achieving major cytogenetic response (MCyR) [6]: 65% | patients attaining complete cytogenetic response (CCyR) [6]: 47% | V/F, preliminary value based on NCA [7]: 1315 L | t1/2, preliminary value [7]: 17.5 h
